# Data reported in paper PMC12108179, “Porcine β-Defensin 2 Expressed in Pichia pastoris Alleviates Enterotoxigenic Escherichia coli-Induced Intestinal Injury and Inflammatory Response in Mice” (Animals : an Open Access Journal from MDPI, 2025).
# Where no end group is shown, it is not given here.
# How the values were obtained:
# [1] = test system: IL-6; test: ETEC7-infected mouse model: serum cytokine ELISA; type: in vivo; conditions: ETEC7-infected ICR mice, 9000 U (COL group) orally for 7 days, 7 dpi, p < 0.05, n = 6/group
# Excerpt: (§1) The animal experiment was approved by the Animal Ethics and Welfare Committee of Huazhong Agricultural University, Wuhan, China (HZAUMO-2023-0264). The animal model was established as in our previous experiment. Female ICR mice (3–4 weeks old) were obtained from the Laboratory Animals Center of Huazhong Agricultural University. After 5 days of adaptation, 36 mice were randomly assigned into 6 groups (n = 6/group), namely, a control group (only phosphate-buffered saline (PBS) treatment), the ETEC7 group (ETEC7 and PBS treatment), the COL group (ETEC7 and 9000 U colistin sulfate treatment), the HP group (ETEC7 and 16 AU rPBD2 treatment), the MP group (ETEC7 and 8 AU rPBD2 treatment), and the LP group (ETEC7 and 4 AU rPBD2 treatment). The mice were fed antibiotics, including kanamycin (400 mg/L), gentamicin (35 mg/L), vancomycin (45 mg/L), metronidazole (215 mg/L), and colistin (850 U/mL), in drinking water for 72 h and were then fed normal water for another 24 h. All mice were fasted for 12 h and then were orally gavaged with 200 μL 3% NaHCO3 30 min prior to the challenge with 10^9 CFU of ETEC7. The mice were orally infected with ETEC7 once a day for 3 days. […] The control and ETEC7 groups were administrated with the same volume of PBS. All mice were treated with PBS, colistin sulfate, or rPBD2 for 7 continuous days.
# (§2) Body weight change was calculated as ((final body weight − initial body weight)/initial body weight) × 100%. Diarrhea scores were recorded at 1, 3, 5, and 7 days post infection (dpi) based on the following scoring criteria: (1) normal stool: 0 point; (2) color change/consistency: 1 point; (3) presence of wet tail or mucosa: 2 points; (4) watery stool: 3 points. A score of 1 was considered diarrhea. Fresh stools and 1 cm colon were collected and suspended in sterile PBS. Ten-fold serial dilutions of stool or colon homogenate were plated on MacConkey plates containing 100 μg/mL ampicillin. […] Intestine water content (intestine/carcass ratio) was measured as described previously. The cecum index was calculated as cecum weight (g)/body weight (g). […]
# [2] = test system: IL-10; test: ETEC7-infected mouse model: serum cytokine ELISA; type: in vivo; conditions: ETEC7-infected ICR mice, 9000 U orally for 7 days, 7 dpi, among the groups, p > 0.05, n = 6/group
# Excerpt: as §1, §2
# [3] = test system: TNF-α; test: ETEC7-infected mouse model: serum cytokine ELISA; type: in vivo; conditions: ETEC7-infected ICR mice, 9000 U (COL group) orally for 7 days, 7 dpi, p < 0.05, n = 6/group
# Excerpt: as §1, §2
# [4] = test system: ETEC7; test: ETEC7-infected mouse model: clinical symptoms (body weight, diarrhea score, intestine/carcass ratio, cecum index); type: in vivo, ICR mice; conditions: 9000 U orally for 7 days, n = 6/group
# Excerpt: as §1, §2
# [5] = test system: ETEC7; test: ETEC7-infected mouse model: ileum morphology (HE staining); type: in vivo; conditions: ETEC7-infected ICR mice, 7 dpi, n = 6/group
# Excerpt: as §1, §2
# [6] = test system: E. coli K88; test: ETEC7-infected mouse model: E. coli loads in stool and colon; type: in vivo; conditions: ETEC7-infected ICR mice, COL group, 9000 U orally for 7 days, p < 0.05, n = 6/group
# Excerpt: The animal experiment was approved by the Animal Ethics and Welfare Committee of Huazhong Agricultural University, Wuhan, China (HZAUMO-2023-0264). The animal model was established as in our previous experiment. Female ICR mice (3–4 weeks old) were obtained from the Laboratory Animals Center of Huazhong Agricultural University. After 5 days of adaptation, 36 mice were randomly assigned into 6 groups (n = 6/group), namely, a control group (only phosphate-buffered saline (PBS) treatment), the ETEC7 group (ETEC7 and PBS treatment), the COL group (ETEC7 and 9000 U colistin sulfate treatment), the HP group (ETEC7 and 16 AU rPBD2 treatment), the MP group (ETEC7 and 8 AU rPBD2 treatment), and the LP group (ETEC7 and 4 AU rPBD2 treatment). […]
# as §2, with “points.” for “points. A score of 1 was considered diarrhea. Fresh stools and 1 cm colon were collected and suspended in sterile PBS. Ten-fold serial dilutions of stool or colon homogenate were plated on MacConkey plates containing 100 μg/mL ampicillin.”
# [7] = in the presence of 150 mM NaCl or 2.5 mM CaCl2; cited from earlier work
# Excerpt: It has been reported that PBD2 has antibacterial activity against Gram-positive and -negative bacteria. […] When AMPs are used in the animal industry, many factors, including temperature, pH, enzymes, and salt ions, may affect their activities. […] This may allow crude rPBD2 to endure the ...
# [8] = 9000 U (COL group) orally for 7 days, p < 0.05
Substance,serum IL-6 levels [1],serum IL-10 levels [2],serum TNF-α levels [3],"diarrhea scores ([4]; ETEC7-infected ICR mice, 1, 3, 5, 7 dpi, vs ETEC7 group)","cecum index ([4]; ETEC7-infected ICR mice, 7 dpi, among the groups)","final body weight ([4]; female ICR mice, ETEC7 10^9 CFU orally once a day for 3 days, 7 dpi, among groups, p > 0.05)","VH/CD (villus height/crypt depth, ileum) [5, 8]","villus height (ileum) [5, 8]","crypt depth (ileum) ([5]; 9000 U orally for 7 days, among the groups, p > 0.05)",colonized numbers of E. coli K88 in the colon ([6]; 7 dpi),bacterial loads in feces ([6]; vs ETEC7 group),antibacterial activity in the presence of salts [7]
colistin sulfate,could decrease the levels of IL-6,no significant differences,significantly decrease,relative lower diarrhea scores but without significant differences,no significant differences,no significant differences,significantly increase,significantly increase,no significant differences,lower than those in the ETEC7 group,significantly decreased,
"synthetic human β-defensin 3 (hBD-3): synthetic human β-defensin 3, literature comparison (GIINTLQKYYCRVRGGRCAVLSCLPKEEQIGKCSTRGRKCCRRKK; ends and bridges not checked; cysteine pairing not given here; UniProt P81534 23-67, looked up)",,,,,,,,,,,,completely abolished
